Laboratory results reported in patent US20110152268A1, “NOVEL PHARMACEUTICAL COMPOSITION FOR TREATING NOCICEPTIVE PAIN” (ASTELLAS PHARMA INC., priority 2008, published 2011).
Where a name gives a salt, the structure may show the parent alone. Read-outs that look alike come from different tables or passages of the source.

Columns and labels:
[1] = test system: Monoiodoacetate (MIA)-Induced Osteoarthritis Model; conditions: rats, 3 weeks after MIA administration, inflammation already recovered; cited from earlier work
[2] = test system: Adjuvant-Derived Arthritis Rat; test: Inhibitory effect on the difference in hindlimb weight of adjuvant-derived arthritis rat; type: in vivo
Method: In this test, female Lewis rats (7-8 weeks old) were used. 50 μL of H37 Ra (manufactured by DIFCO Co.), Mycobacterium tuberculosis suspended with liquid paraffin to a concentration of 10 mg/mL was subcutaneously administered around the right hind footpad. […] The number of rats of each group was 8. The solvent herein used was distilled water. When taking into consideration the period for obtaining a maximum in-blood-concentration, at one hour after administration, the difference in weight between the left and right hindlimbs was measured using an incapacitance tester (manufactured by Linton Instrumentation, Norfolk, UK).

[3] = test system: Bradykinin-Induced Knee Pain Model
Method: The induction and evaluation of the present model was basically carried out in accordance with Ann Rheum Dis, 52, 817-822 (1993). A diluted solution, which was diluted with a solvent so as to obtain a vehicle and the compound A having a predetermined concentration, was orally administered to male SD rats (6-7 week old, obtained by Charles River Laboratories Japan, Inc.). This test was carried out for 10 rats of each group. The solvent herein used was distilled water. […] The inhibition rate of the drug to be tested was calculated by setting the difference in weight of a vehicle-administered group to an inhibition rate of 0% and the difference in weight of a normal group to an inhibition rate of 100%. Significant difference testing was carried out by between-group comparison between the vehicle group and the drug group using a Dunnett's t-test after ANOVA testing.

[4] = test system: Monoiodoacetate (MIA)-Induced Osteoarthritis Model; test: Analgesic action in monoiodoacetate (MIA)-induced osteoarthritis model (difference in hindlimb weight); type: in vivo, rat; conditions: male SD rats, 3 weeks after MIA, oral, compound A 30 mg/kg, 1 hour after administration
Method: The present disease model was produced based on the description of Toxicol Pathol 31 (6), 619-624 (2003). […] MIA was dissolved in physiological saline and 50 μl of the resulting solution was administered with a needle (26 gauge, 0.5 inch). […] The solvent herein used was distilled water. One hour after administration, the difference in weight between the left and right hindlimbs was measured using an incapacitance tester (manufactured by Linton Instrumentation, Norfolk, UK).

[5] = test system: Bradykinin-Induced Knee Pain Model; conditions: as a joint injection; cited from earlier work
[6] = compound A 10 mg/kg vs duloxetine 30 mg/kg, oral

O=C(O)Cc1ccccc1Nc1c(Cl)cccc1Cl [diclofenac]
effectiveness of NSAIDs on pain in this stage of the MIA model [1]: not effective

COc1ccc2c(c1)c(CC(=O)O)c(C)n2C(=O)c1ccc(Cl)cc1 [indomethacin]
effectiveness of NSAIDs on pain in this stage of the MIA model [1]: not effective

C1=Cc2cccc(OCC3CNCCO3)c2C1 (single isomer, unassigned; (+)) [compound A, (+)-2-[(inden-7-yloxy)methyl]morpholine]
improvement effect relative to duloxetine [2, 6]: about 3 fold
improvement effect relative to duloxetine [3, 6]: ~3 fold

C1=Cc2cccc(OCC3CNCCO3)c2C1 (single isomer, unassigned; (+)) [compound A hydrobromate, (+)-2-[(inden-7-yloxy)methyl]morpholine]
improvement effect (inhibition rate) on the difference in hindlimb weight [4]: 54%
improvement effect (inhibition rate) on the difference in hindlimb weight ([2]; female Lewis rats, day after adjuvant, oral, 10 mg/kg, 1 hour after administration): 65%

CNCC[C@H](Oc1cccc2ccccc12)c1cccs1 [duloxetine, (S)—N-methyl-γ-(1-naphthalenyloxy)-2-thiophenepropanamine]
improvement effect (inhibition rate) on pain behavior score ([3]; rat, in vivo, po, 30 mg/kg): 56%

C1=Cc2cccc(OCC3CNCCO3)c2C1 (single isomer, unassigned; (+)) [compound A benzenesulfonate, (+)-2-[(inden-7-yloxy)methyl]morpholine]
improvement effect (inhibition rate) on pain behavior score ([3]; male SD rats, oral, 10 mg/kg, bradykinin injected 1 hour after administration): 55%

CNCC[C@H](Oc1cccc2ccccc12)c1cccs1 [duloxetine hydrochloride, (S)—N-methyl-γ-(1-naphthalenyloxy)-2-thiophenepropanamine]
improvement effect (inhibition rate) on the difference in hindlimb weight ([2]; rat, in vivo, po, 30 mg/kg): 63%

hyaluronan
effectiveness in the bradykinin model [5]: effective
